The values below come from paper PMC9581852, “Organic Cation Transporter-Mediated Accumulation of Quinolinium Salts in the LV Myocardium of Rodents” (Molecular Imaging and Biology, 2022).

Holding throughout (format): cell-based
In assay [1] the target is T1, hOCT3 (organic cation transporter 3) (Homo sapiens, UniProt O75751).
T1 construct: gene SLC22A3
T1 sequence (O75751 1-556): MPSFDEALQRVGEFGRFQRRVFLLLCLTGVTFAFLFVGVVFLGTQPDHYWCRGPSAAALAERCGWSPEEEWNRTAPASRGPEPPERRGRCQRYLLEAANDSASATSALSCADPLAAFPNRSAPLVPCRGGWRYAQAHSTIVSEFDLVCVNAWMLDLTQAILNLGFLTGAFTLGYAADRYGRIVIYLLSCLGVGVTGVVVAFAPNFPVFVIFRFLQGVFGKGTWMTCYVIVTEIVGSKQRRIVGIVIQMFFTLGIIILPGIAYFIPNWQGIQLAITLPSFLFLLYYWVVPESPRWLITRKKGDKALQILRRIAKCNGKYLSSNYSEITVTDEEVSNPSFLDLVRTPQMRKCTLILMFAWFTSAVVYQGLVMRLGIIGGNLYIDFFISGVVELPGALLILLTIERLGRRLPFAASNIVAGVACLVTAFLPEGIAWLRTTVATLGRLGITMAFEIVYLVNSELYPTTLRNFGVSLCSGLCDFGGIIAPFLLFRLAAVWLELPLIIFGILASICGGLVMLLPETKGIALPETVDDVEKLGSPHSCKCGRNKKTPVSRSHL
Description: radioligand saturation binding/uptake in intact HEK293-hOCT3 cells, empty-vector cells as non-specific binding.

The target in assay [2] is T1, hOCT3 (organic cation transporter 3). Description: inhibition of […]FEtQ uptake in HEK293 cells stably expressing hOCT3.
For assay [3], the target named is T2, hOCT2 (organic cation transporter 2) (Homo sapiens, UniProt O15244).
T2 construct: gene SLC22A2
T2 sequence (O15244 1-555): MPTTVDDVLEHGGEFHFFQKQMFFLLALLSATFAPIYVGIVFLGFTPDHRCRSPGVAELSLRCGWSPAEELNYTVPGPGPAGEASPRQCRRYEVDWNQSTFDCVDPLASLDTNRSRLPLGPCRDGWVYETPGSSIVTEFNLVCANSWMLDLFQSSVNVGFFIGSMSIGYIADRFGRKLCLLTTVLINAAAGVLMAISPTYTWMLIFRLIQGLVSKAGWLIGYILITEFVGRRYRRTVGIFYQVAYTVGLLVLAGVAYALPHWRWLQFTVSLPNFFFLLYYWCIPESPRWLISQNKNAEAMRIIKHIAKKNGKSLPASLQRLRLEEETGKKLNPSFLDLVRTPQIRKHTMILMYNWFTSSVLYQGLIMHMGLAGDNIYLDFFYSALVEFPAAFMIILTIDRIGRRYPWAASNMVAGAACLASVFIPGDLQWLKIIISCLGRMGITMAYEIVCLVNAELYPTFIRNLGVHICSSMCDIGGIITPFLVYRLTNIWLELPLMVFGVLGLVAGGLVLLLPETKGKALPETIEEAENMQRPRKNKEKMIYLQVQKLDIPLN
Description: in vivo PET/CT blocking of […]FEtQ uptake in HEK-hOCT2 xenografts in mice.

`FCC[n+]1cccc2ccccc21` [[18F]FEtQ] yielded a Kd in assay [1] of 214 ± 114 µM.

With `C[C@]12C[C@H](O)[C@H]3[C@@H](CCC4=CC(=O)CC[C@@]43C)[C@@H]1CC[C@@H]2C(=O)CO` [corticosterone], the IC50 in assay [2] fell in the range of 0.05 to 0.5 µM.

As for `CCN1/C(=C/c2ccc3ccccc3[n+]2CC)C=Cc2ccccc21` [decynium 22], the “% lower peak tumor uptake at 0.075 mg/kg” value in assay [3] is given as 40 % lower peak tumor uptake at 0.075 mg/kg.
